Reference: PMC7617869, “Molecular glues that inhibit deubiquitylase activity and inflammatory signaling” (Nature Structural & Molecular Biology, 2025)
Several values for one entry are separate records, joined by “and”; a condition that tells them apart may be missing. Identical values can stand only once.

Target: T1, BRISC (Homo sapiens, UniProt P46736+Q15018+Q9NXR7)
T1 construct: made in house; host or cells: Spodoptera frugiperda (Sf9) insect cells, MultiBac
Experiment: Compound library screening and hit validation (IQF diubiquitin, 1 nM BRISC)
Format: biochemical
Conditions: for BRISC, normalised activity (Ext. 1a): two replicate columns
Experimental: Assays were performed in 384-well black flat-bottom low-flange plates (Corning, 35373) in buffer containing 50 mM HEPES–NaOH pH 7.0, 100 mM NaCl, 1 mg ml^−1 BSA, 1 mM DTT and 0.03% v/v Brij-35. Then, 10 μl of twofold concentrated enzyme stock was dispensed, followed by transfer of 200 nl of compounds (1 mM stock) using a 384-pin tool and a 15-min incubation at room temperature. Then, 10 μl of twofold concentrated substrate stock was added and the reaction was monitored by measuring fluorescence intensity (excitation, 540 nm; emission, 580 nm) after 20-min incubation at room temperature and ~50% of substrate was consumed. Orthogonal assays for verification of H20 and P12 hit compounds using USP2 (100 nM) and trypsin (125 nM) were performed in identical conditions.

inhibition of BRISC, hit validation dose response (BRISC 1 nM): selective inhibition
BRISC, normalised activity (Ext. 1a) (log [compound (μM)] 0.1938, listed as H20): 0.7394 and 0.8570
BRISC, normalised activity (Ext. 1a) (log [compound (μM)] 0.4949, listed as H20): 0.6725 and 0.7111
BRISC, normalised activity (Ext. 1a) (log [compound (μM)] 0.7959, listed as H20): 0.4328 and 0.4373
BRISC, normalised activity (Ext. 1a) (log [compound (μM)] 1.0969, listed as H20): 0.3601 and 0.3685
BRISC, normalised activity (Ext. 1a) (log [compound (μM)] 1.3979, listed as H20): 0.2929 and 0.2927
BRISC, normalised activity (Ext. 1a) (log [compound (μM)] 1.6990, listed as H20): 0.2472 and 0.2252
BRISC, normalised activity (Ext. 1a) (log [compound (μM)] 2.0000, listed as H20): 0.2296 and 0.2103
BRISC, normalised activity (Ext. 1a) (log [compound (μM)] 2.3010, listed as H20): 0.2316 and 0.1815
BRISC, normalised activity (Ext. 1a) (log [compound (μM)] -0.1072, listed as H20): 0.9797 and 1.0152
BRISC, normalised activity (Ext. 1a) (log [compound (μM)] -0.4082, listed as H20): 1.0306 and 1.0024
BRISC, normalised activity (Ext. 1a) (log [compound (μM)] -0.7093, listed as H20): 1.0136 and 1.0571
BRISC, normalised activity (Ext. 1a) (log [compound (μM)] -1.7100, normalisation point): 1.0000
normalised V0, Mean (log[compound (μM)] 0.1931): 0.7989
normalised V0, Mean (log[compound (μM)] 0.4942): 0.6361
normalised V0, Mean (log[compound (μM)] 0.7959): 0.4437
normalised V0, Mean (log[compound (μM)] 1.0969): 0.3773
normalised V0, Mean (log[compound (μM)] 1.3979): 0.3064
normalised V0, Mean (log[compound (μM)] 1.6990): 0.2332
normalised V0, Mean (log[compound (μM)] 2.0000): 0.2301
normalised V0, Mean (log[compound (μM)] 2.3010): 0.1610
normalised V0, Mean (log[compound (μM)] -0.1079): 0.9141
normalised V0, Mean (log[compound (μM)] -0.4089): 0.9318
normalised V0, Mean (log[compound (μM)] -0.7212): 0.9518
normalised V0, Mean (log[compound (μM)] -1.7212, normalisation point): 1.0000
Structure (SMILES): O=C(NC1CCNCC1)c1nn(C(=O)c2c(Cl)cccc2Cl)cc1NC(=O)c1c(Cl)cccc1Cl [JMS-175-2]
